Results: patent publication EP3325465B1, “PESTICIDALLY ACTIVE PYRAZOLE DERIVATIVES” (Syngenta Participations AG, priority 2015, dated 2017)
Where two headings read alike, the source gives them in different places.

What was measured:
Assay type in all cases: in vivo
[1] = test system: Diabrotica balteata, (Corn root worm); assay: Diabrotica balteata maize sprout spray test, L2 larvae; details: 96 h
Description: (§1) The pesticidal/insecticidal properties of the compounds according to embodiments 1 or 2 can be illustrated via the following tests: Spodoptera littoralis (Egyptian cotton leaf worm) • Cotton leaf discs were placed onto agar in 24-well microtiter plates and sprayed with aqueous test solutions prepared from 10'000 ppm DMSO stock solutions. After drying the leaf discs were infested with five L1 larvae. […] Plutella xylostella (Diamond back moth): 24-well microtiter plates with artificial diet were treated with aqueous test solutions prepared from 10'000 ppm DMSO stock solutions by pipetting. After drying, the plates were infested with L2 larvae (10 to 15 per well). The samples were assessed for mortality and growth inhibition in comparison to untreated samples 5 days after infestation. […] Diabrotica balteata, (Corn root worm) • Maize sprouts placed onto an agar layer in 24-well microtiter plates were treated with aqueous test solutions prepared from 10'000 ppm DMSO stock solutions by spraying. After drying, the plates were infested with L2 larvae (6 to 10 per well). […] Thrips tabaci (Onion thrips): Sunflower leaf discs were placed on agar in 24-well microtiter plates and sprayed with aqueous test solutions prepared from 10'000 ppm DMSO stock solutions. After drying the leaf discs were infested with a thrips population of mixed ages. The samples were assessed for mortality 6 days after infestation. […] Tetranychus urticae (Two-spotted spider mite): Bean leaf discs on agar in 24-well microtiter plates were sprayed with aqueous test solutions prepared from 10'000 ppm DMSO stock solutions. After drying the leaf discs were infested with a mite population of mixed ages. The samples were assessed for mortality on mixed population (mobile stages) 8 days after infestation. […] Euschistus heros (Neotropical Brown Stink Bug): • Two weeks old soybean plants were sprayed in a turn table spray chamber with the diluted spray solutions. After drying 2 soybean seeds were added and plants were infested with 10 N2 nymphs of the neotropical brown stink bug Euschistus heros in plastic test boxes. The samples were assessed for mortality in comparison to untreated samples 5 days after infestation. • The following compounds gave at least 80% mortality of Euschistus heros at an application rate of 12.5 ppm: Compounds 3 , 4 , 8 , 39 , 43 , 44 , 46 , 75 , 76 , 77 , 78 , 79 , 80 , 81 , 82 , 88 , 90 , 93 and 95 . Myzus persicae (Green peach aphid): Sunflower leaf discs were placed on agar in a 24-well microtiter plate and sprayed with test solutions at an application rate of 200 ppm. After drying, the leaf discs were infested with an aphid population of mixed ages. After an incubation period of 6 DAT, samples were checked for mortality. The following compounds gave at least 50% mortality of Myzus persicae: Compounds 3 , 4 , 8 , 43 , 44 , 75 , 76 , 77 , 80 , 81 , 90 and 92 . Myzus persicae (Green peach aphid): • Test compounds were applied by pipette into 24 well plates and mixed with Sucrose solution. Application rate: 12.5ppm. The plates were closed with a stretched parafilm. A plastic stencil with 24 holes is placed onto the plate and infested pea seedlings were placed directly on the Parafilm. The infested plate is closed with a gel blotting paper and another plastic stencil and then turned upside down. […]

[2] = test system: Plutella xylostella (Diamond back moth); assay: Plutella xylostella artificial diet test, L2 larvae; details: 120 h, application rate of 200 ppm, mortality and growth inhibition 5 days after infestation
Description: as §1

[3] = test system: Spodoptera littoralis (Egyptian cotton leaf worm); assay: Spodoptera littoralis cotton leaf disc spray test, L1 larvae; details: foliar, 72 h
Description: as §1

[4] = test system: Tetranychus urticae (Two-spotted spider mite); assay: Tetranychus urticae bean leaf disc spray test; details: foliar, 192 h, application rate of 200 ppm, mortality on mixed population (mobile stages) 8 days after infestation
Description: as §1

[5] = test system: Thrips tabaci (Onion thrips); assay: Thrips tabaci sunflower leaf disc spray test; details: foliar, 144 h, application rate of 200 ppm, mortality 6 days after infestation, mixed ages
Description: as §1

[6] = application rate of 200 ppm, 4 days after infestation, L2 larvae, read-out: mortality
[7] = application rate of 200 ppm, 3 days after infestation, L1 larvae, read-out: mortality

Cn1nc(C(F)(F)C(F)(F)F)c(C(F)(F)F)c1-c1noc(-c2ccc(Cl)c(C(=O)NC3CC3)c2)n1 [Compound 9, 2-chloro-N-cyclopropyl-5-[3-[2-methyl-5-(1,1 ,2,2,2-pentafluoroethyl)-4-(trifluoromethyl)pyrazol-3-yl]-1,2,4-oxadiazol-5-yl]benzamide]
≥ 80%: mortality at 200 ppm [1, 6]

Cn1nc(C(F)(F)C(F)(F)F)c(C(F)(F)F)c1-c1nc(-c2ccc(Cl)c(C(=O)NC3CC3)c2)no1 [Compound 21, 2-chloro-N-cyclopropyl-5-[5-[2-methyl-5-(1,1,2,2,2-pentafluoroethyl)-4-(trifluoromethyl)pyrazol-3-yl]-1,2,4-oxadiazol-3-yl]benzamide]
≥ 80%: pest or weed control at 200 ppm [2]

Cn1nc(C(F)(F)C(F)(F)F)c(C(F)(F)F)c1-c1ncn(-c2ccc(Cl)c(C(=O)NC3CC3)c2)n1 [Compound 35, 2-chloro-N-cyclopropyl-5-[3-[2-methyl-5-(1,1,2,2,2-pentafluoroethyl)-4-(trifluoromethyl)pyrazol-3-yl]-1,2,4-triazol-1-yl]benzamide]
≥ 80%: pest or weed control at 200 ppm [2] | mortality at 200 ppm [3, 7]

Cn1nc(-c2c(C(F)(F)F)c(C(F)(F)C(F)(F)F)nn2C)cc1-c1ccc(Cl)c(C(=O)NC2CC2)c1 [Compound 41, 2-chloro-N-cyclopropyl-5-[2-methyl-5-[2-methyl-5-(1,1,2,2,2-pentafluoroethyl)-4-(trifluoromethyl)pyrazol-3-yl]pyrazol-3-yl]benzamide]
≥ 80%: mortality at 200 ppm [1, 6] | pest or weed control at 200 ppm [4] | pest or weed control at 200 ppm [5] | pest or weed control at 200 ppm [2] | mortality at 200 ppm [3, 7]

Cn1nc(C(F)(F)C(F)(F)F)c(C(F)(F)F)c1-c1ncc(-c2ccc(Cl)c(C(=O)NC3CC3)c2)s1 [Compound 47, 2-chloro-N-cyclopropyl-5-[2-[2-methyl-5-(1,1 ,2,2,2-pentafluoroethyl)-4-(trifluoromethyl)pyrazol-3-yl]thiazol-5-yl]benzamide]
≥ 80%: mortality at 200 ppm [1, 6] | pest or weed control at 200 ppm [2] | mortality at 200 ppm [3, 7]

Cn1nc(C(F)(F)C(F)(F)F)c(C(F)(F)F)c1-c1ncc(-c2ccc(Cl)c(C(=O)NC3(C#N)CC3)c2)s1 [Compound 48, 2-chloro-N-(1-cyanocyclopropyl)-5-[2-[2-methyl-5-(1,1,2,2,2-pentafluoroethyl)-4-(trifluoromethyl)pyrazol-3-yl]thiazol-5-yl]benzamide]
≥ 80%: mortality at 200 ppm [1, 6] | pest or weed control at 200 ppm [4] | pest or weed control at 200 ppm [5] | pest or weed control at 200 ppm [2] | mortality at 200 ppm [3, 7]

Cn1nc(C(F)(F)C(F)(F)F)c(C(F)(F)F)c1-c1csc(-c2ccc(Cl)c(C(=O)NC3CC3)c2)n1 [Compound 49, 2-chloro-N-cyclopropyl-5-[4-[2-methyl-5-(1,1 ,2,2,2-pentafluoroethyl)-4-(trifluoromethyl)pyrazol-3-yl]thiazol-2-yl]benzamide]
≥ 80%: mortality at 200 ppm [1, 6] | pest or weed control at 200 ppm [2] | mortality at 200 ppm [3, 7]

Cn1nc(C(F)(F)C(F)(F)F)c(C(F)(F)F)c1-c1nc(-c2ccc(Cl)c(C(=O)NC3CC3)c2)cs1 [Compound 53, 2-chloro-N-cyclopropyl-5-[2-[2-methyl-5-(1,1 ,2,2,2-pentafluoroethyl)-4-(trifluoromethyl)pyrazol-3-yl]thiazol-4-yl]benzamide]
≥ 80%: pest or weed control at 200 ppm [2]

Cn1nc(C(F)(F)C(F)(F)F)c(C(F)(F)F)c1-c1nc(-c2ccc(Cl)c(C(=O)NC3(C#N)CC3)c2)cs1 [Compound 54, 2-chloro-N-(1-cyanocyclopropyl)-5-[2-[2-methyl-5-(1,1,2,2,2-pentafluoroethyl)-4-(trifluoromethyl)pyrazol-3-yl]thiazol-4-yl]benzamide]
≥ 80%: mortality at 200 ppm [1] | pest or weed control at 200 ppm [4] | pest or weed control at 200 ppm [5] | pest or weed control at 200 ppm [2] | mortality at 200 ppm [3]

Cn1nc(C(F)(F)C(F)(F)F)c(C(F)(F)F)c1-c1c[nH]c(-c2ccc(Cl)c(C(=O)NC3(C#N)CC3)c2)n1 [Compound 70, 2-chloro-N-(1-cyanocyclopropyl)-5-[4-[2-methyl-5-(1,1,2,2,2-pentafluoroethyl)-4-(trifluoromethyl)pyrazol-3-yl]-1H-imidazol-2-yl]benzamide]
≥ 80%: pest or weed control at 200 ppm [2]

Cn1nc(C(F)(F)C(F)(F)F)c(C(F)(F)F)c1-c1cc(-c2ccc(Cl)c(C(=O)NC3CC3)c2)[nH]n1 [Compound 73, 2-chloro-N-cyclopropyl-5-[3-[2-methyl-5-(1,1,2,2,2-pentafluoroethyl)-4-(trifluoromethyl)pyrazol-3-yl]-1H-pyrazol-5-yl]benzamide]
≥ 80%: pest or weed control at 200 ppm [4] | mortality at 200 ppm [3, 7]

Cn1nc(C(F)(F)C(F)(F)F)c(C(F)(F)F)c1-c1cc(-c2ccc(Cl)c(C(=O)NCCC(F)(F)F)c2)on1 [Compound 83, 2-chloro-5-[3-[2-methyl-5-(1,1,2,2,2-pentafluoroethyl)-4-(trifluoromethyl)pyrazol-3-yl]isoxazol-5-yl]-N-(3,3,3-trifluoropropyl)benzamide]
≥ 80%: mortality at 200 ppm [1, 6] | pest or weed control at 200 ppm [5] | pest or weed control at 200 ppm [2] | mortality at 200 ppm [3, 7]

Cn1nc(C(F)(F)C(F)(F)F)c(C(F)(F)F)c1-c1cc(-c2ccc(Cl)c(C(=O)NCC=C(Cl)Cl)c2)on1 [Compound 84, 2-chloro-N-(3,3-dichloroallyl)-5-[3-[2-methyl-5-(1,1,2,2,2-pentafluoroethyl)-4-(trifluoromethyl)pyrazol-3-yl]isoxazol-5-yl]benzamide]
≥ 80%: mortality at 200 ppm [1, 6] | pest or weed control at 200 ppm [4] | pest or weed control at 200 ppm [5] | pest or weed control at 200 ppm [2]

Cn1nc(C(F)(F)C(F)(F)F)c(C(F)(F)F)c1-c1cc(-c2ccc(Cl)c(C(=O)Nc3ccc(Cl)cc3)c2)on1 [Compound 85, 2-chloro-N-(4-chlorophenyl)-5-[3-[2-methyl-5-(1,1,2,2,2-pentafluoroethyl)-4-(trifluoromethyl)pyrazol-3-yl]isoxazol-5-yl]benzamide]
≥ 80%: pest or weed control at 200 ppm [4]

C=C(F)CNC(=O)c1cc(-c2cc(-c3c(C(F)(F)F)c(C(F)(F)C(F)(F)F)nn3C)no2)ccc1Cl [Compound 86, 2-ch loro-N-(2-fluoroallyl)-5-[3-[2-methyl-5-(1,1,2,2,2-pentafluoroethyl)-4-(trifluoromethyl)pyrazol-3-yl]isoxazol-5-yl]benzamide]
≥ 80%: mortality at 200 ppm [1, 6] | pest or weed control at 200 ppm [4] | pest or weed control at 200 ppm [5] | pest or weed control at 200 ppm [2] | mortality at 200 ppm [3, 7]

CC(C)CNC(=O)c1cc(-c2cc(-c3c(C(F)(F)F)c(C(F)(F)C(F)(F)F)nn3C)no2)ccc1Cl [Compound 87, 2-chloro-N-isobutyl-5-[3-[2-methyl-5-(1,1,2,2,2-pentafluoroethyl)-4-(trifluoromethyl)pyrazol-3-yl]isoxazol-5-yl]benzamide]
≥ 80%: mortality at 200 ppm [1, 6] | pest or weed control at 200 ppm [4] | pest or weed control at 200 ppm [5] | pest or weed control at 200 ppm [2] | mortality at 200 ppm [3, 7]

Cn1nc(C(F)(F)C(F)(F)F)c(C(F)(F)F)c1-c1cc(-c2ccc(Cl)c(C(=O)NCc3ccccc3)c2)on1 [Compound 91, N-benzyl-2-chloro-5-[3-[2-methyl-5-(1,1,2,2,2-pentafluoroethyl)-4-(trifluoromethyl)pyrazol-3-yl]isoxazol-5-yl]benzamide]
≥ 80%: mortality at 200 ppm [1, 6] | pest or weed control at 200 ppm [4] | pest or weed control at 200 ppm [5] | pest or weed control at 200 ppm [2]
